Reference: patent publication US10919891B2, “Heterocyclic compound” (TAKEDA PHARMACEUTICAL COMPANY LIMITED, priority 2017, dated 2021)

Biological target: T1, human CaSR (Homo sapiens, UniProt P41180)
T1 construct: expressed in transfected cells; host or cells: CHO cells
T1 sequence (P41180 20-1078): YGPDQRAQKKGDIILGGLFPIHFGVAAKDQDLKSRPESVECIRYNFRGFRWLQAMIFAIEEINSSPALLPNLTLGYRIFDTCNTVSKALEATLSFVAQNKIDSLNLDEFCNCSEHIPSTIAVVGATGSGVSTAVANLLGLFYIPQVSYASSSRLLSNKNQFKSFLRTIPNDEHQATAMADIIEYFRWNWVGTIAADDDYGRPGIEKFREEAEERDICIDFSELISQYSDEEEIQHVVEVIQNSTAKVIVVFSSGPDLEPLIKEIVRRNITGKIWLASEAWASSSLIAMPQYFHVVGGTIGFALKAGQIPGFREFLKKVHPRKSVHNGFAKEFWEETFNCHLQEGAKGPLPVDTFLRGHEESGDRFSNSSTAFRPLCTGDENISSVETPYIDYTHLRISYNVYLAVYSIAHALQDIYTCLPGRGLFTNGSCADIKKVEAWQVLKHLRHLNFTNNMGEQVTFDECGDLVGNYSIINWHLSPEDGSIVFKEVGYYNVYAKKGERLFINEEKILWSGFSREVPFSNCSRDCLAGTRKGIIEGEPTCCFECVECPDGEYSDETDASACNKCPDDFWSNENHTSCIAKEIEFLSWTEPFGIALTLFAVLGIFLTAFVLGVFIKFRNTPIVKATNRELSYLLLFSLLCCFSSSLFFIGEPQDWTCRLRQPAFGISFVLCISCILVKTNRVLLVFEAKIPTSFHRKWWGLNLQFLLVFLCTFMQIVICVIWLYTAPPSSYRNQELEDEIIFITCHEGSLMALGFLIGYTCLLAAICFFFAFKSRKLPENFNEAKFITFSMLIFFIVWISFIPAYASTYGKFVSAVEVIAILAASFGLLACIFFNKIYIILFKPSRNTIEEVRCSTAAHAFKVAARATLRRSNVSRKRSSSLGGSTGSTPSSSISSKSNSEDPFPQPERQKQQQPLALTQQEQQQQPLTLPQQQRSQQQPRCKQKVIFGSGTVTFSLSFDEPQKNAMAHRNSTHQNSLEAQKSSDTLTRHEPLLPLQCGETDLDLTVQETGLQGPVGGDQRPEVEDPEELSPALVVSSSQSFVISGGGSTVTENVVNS
Experiment: Human CaSR Antagonist Activity (CHO cells, NFAT-Luciferase reporter)
Format: cell-based
Settings: 3.3 μm test compound; CaCl2 final 1.3 mM; 100% = reference carboxamide at 10 μM
Description: CaSR antagonist activity measurement was performed using Bright-Glo Luciferase assay system (Promega Corporation). CHO cells in which human CaSR and NFAT-Luciferase reporter gene were forcibly expressed were suspended in MEM alpha (Wako Pure Chemical Industries, Ltd.) containing 10% dialyzed serum (HyClone). The cells in suspension was seeded in 384-well white plate (Corning) at 10,000/20 μL/well, and cultured in an incubator of 37° C., 5% CO2 for one day. A diluent of Test compound was prepared with assay buffer (MEM alpha containing 10 mM HEPES (Life Technologies) and 10% dialysis serum). The diluent was added to the plate at 5 μL/well and allowed to stand at 37° C. for 10 minutes. Further, a diluent of 7.8 mM CaCl2 prepared with assay buffer (final concentration 1.3 mM) was added at 5 μl/well and allowed to stand in an incubator of 37° C., 5% CO2 for 2 hours. Bright-Glo reagents (Promega Corporation) were added at 10 μL/well, and the obtained mixture was stirred for 5 minutes, and then luminescence intensity was measured using Multi-label reader Envision (PerkinElmer, Inc.). The activity (%) of the test compound was calculated with the definitions in which the luminescence intensity when DMSO is added in place of the test compound is defined as 0% inhibition; and the luminescence intensity when (5R)—N-(1-ethyl-1-(4-ethylphenyl)propyl)-2,7,7-trimethyl-5-phenyl-4,5,6,7-tetrahydropyrazolo[1,5-a]Pyrimidine-3-carboxamide at final concentration of 10 μM is added is defined as 100% inhibition.

Structure (SMILES)	Inhibition rate (%) at 3.3 μm
CC1(C)C[C@H](c2ccccc2)Nc2c(C(=O)N3CC4CC4(c4ccc(C(F)(F)F)cc4F)C3)cnn21 (stereo partly drawn) [Example 29, ((5R)-7,7-Dimethyl-5-phenyl-4,5,6,7-tetrahydropyrazolo[1,5-a]pyrimidin-3-yl)(1-(2-fluoro-4-(trifluoromethyl)phenyl)-3-azabicyclo[3.1.0]hex-3-yl)methanone]	92%
COc1cccc(C23CC2CN(C(=O)c2cnn4c2N[C@@H](c2ccccc2)CC4(C)C)C3)c1 (stereo partly drawn) [Example 20, ((5R)-7,7-Dimethyl-5-phenyl-4,5,6,7-tetrahydropyrazolo[1,5-a]pyrimidin-3-yl)(1-(3-methoxyphenyl)-3-azabicyclo[3.1.0]hex-3-yl)methanone]	93%
Cc1cccc(C23CC2CN(C(=O)c2cnn4c2N[C@@H](c2ccccc2)CC4(C)C)C3)c1 (stereo partly drawn) [Example 23, ((5R)-7,7-Dimethyl-5-phenyl-4,5,6,7-tetrahydropyrazolo[1,5-a]pyrimidin-3-yl)(1-(3-methylphenyl)-3-azabicyclo[3.1.0]hex-3-yl)methanone]	92%
CC1(C)C[C@H](c2ccccc2)Nc2c(C(=O)N3CC4CC4(c4ccc(C(F)(F)F)cc4F)C3)cnn21 (stereo partly drawn) [Example 28, ((5R)-7,7-Dimethyl-5-phenyl-4,5,6,7-tetrahydropyrazolo[1,5-a]pyrimidin-3-yl)(1-(2-fluoro-4-(trifluoromethyl)phenyl)-3-azabicyclo[3.1.0]hex-3-yl)methanone]	101%
CC1(C)C[C@H](c2ccccc2)Nc2c(C(=O)N3CC4CC4(c4cccc(Cl)c4)C3)cnn21 (stereo partly drawn) [Example 17, (1-(3-Chlorophenyl)-3-azabicyclo[3.1.0]hex-3-yl)((5R)-7,7-dimethyl-5-phenyl-4,5,6,7-tetrahydropyrazolo[1,5-a]pyrimidin-3-yl)methanone]	95%

Same assay, conditions: CHO, 2 h, 3.3 μm test compound; CaCl2 final 1.3 mM; 100% = reference carboxamide at 10 μM; read-out: Inhibition rate (%) at 3.3 μm

Structure (SMILES)	inhibition at 3.3 µM
COc1cccc(C23CC2CN(C(=O)c2cnn4c2N[C@@H](c2ccccc2)CC4(C)C)C3)c1 (stereo partly drawn) [Example 19, ((5R)-7,7-Dimethyl-5-phenyl-4,5,6,7-tetrahydropyrazolo[1,5-a]pyrimidin-3-yl)(1-(3-methoxyphenyl)-3-azabicyclo[3.1.0]hex-3-yl)methanone]	99%
CC1(C)C[C@H](c2ccccc2)Nc2c(C(=O)N3CC4CC4(c4cccc(C(F)(F)F)c4)C3)cnn21 (stereo partly drawn) [Example 25, ((5R)-7,7-Dimethyl-5-phenyl-4,5,6,7-tetrahydropyrazolo[1,5-a]pyrimidin-3-yl)(1-(3-(trifluoromethyl)phenyl)-3-azabicyclo[3.1.0]hex-3-yl)methanone]	97%
Cc1cccc(C23CN(C(=O)c4cnn5c4N[C@@H](c4ccccc4)CC5(C)C)CC2C3(F)F)c1 (stereo partly drawn) [Example 49, (6,6-Difluoro-1-(3-methylphenyl)-3-azabicyclo[3.1.0]hex-3-yl)((5R)-7,7-dimethyl-5-phenyl-4,5,6,7-tetrahydropyrazolo[1,5-a]pyrimidin-3-yl)methanone]	136%
Cc1ccc(C23CN(C(=O)c4cnn5c4N[C@@H](c4ccccc4)CC5(C)C)CC2C3(F)F)cc1 (stereo partly drawn) [Example 48, (6,6-Difluoro-1-(4-methylphenyl)-3-azabicyclo[3.1.0]hex-3-yl)((5R)-7,7-dimethyl-5-phenyl-4,5,6,7-tetrahydropyrazolo[1,5-a]pyrimidin-3-yl)methanone]	117%
COc1cccc(C23CN(C(=O)c4cnn5c4N[C@@H](c4ccccc4)CC5(C)C)CC2C3(F)F)c1 (stereo partly drawn) [Example 51, (6,6-Difluoro-1-(3-methoxyphenyl)-3-azabicyclo[3.1.0]hex-3-yl)((5R)-7,7-dimethyl-5-phenyl-4,5,6,7-tetrahydropyrazolo[1,5-a]pyrimidin-3-yl)methanone]	115%
CC1(C)C[C@H](c2ccccc2)Nc2c(C(=O)N3CC4CC4(c4ccc(C(F)(F)F)cc4F)C3)cnn21 (stereo partly drawn) [Example 27, ((5R)-7,7-Dimethyl-5-phenyl-4,5,6,7-tetrahydropyrazolo[1,5-a]pyrimidin-3-yl)(1-(2-fluoro-4-(trifluoromethyl)phenyl)-3-azabicyclo[3.1.0]hex-3-yl)methanone]	111%
CC1(C)C[C@H](c2ccccc2)Nc2c(C(=O)N3C[C@H]4C[C@@]4(c4ccc(Cl)c(Cl)c4)C3)cnn21 [Example 2, ((1R,5S)-1-(3,4-Dichlorophenyl)-3-azabicyclo[3.1.0]hex-3-yl)((5R)-7,7-dimethyl-5-phenyl-4,5,6,7-tetrahydropyrazolo[1,5-a]pyrimidin-3-yl)methanone]	92%
CC1(C)C[C@H](c2ccccc2)Nc2c(C(=O)N3CC4CC4(c4ccc(C(F)(F)F)c(Cl)c4)C3)cnn21 (stereo partly drawn) [Example 12, (1-(3-Chloro-4-(trifluoromethyl)phenyl)-3-azabicyclo[3.1.0]hex-3-yl)((5R)-7,7-dimethyl-5-phenyl-4,5,6,7-tetrahydropyrazolo[1,5-a]pyrimidin-3-yl)methanone]	90%
CC1(C)C[C@H](c2ccccc2)Nc2c(C(=O)N3CC4C[C@]4(c4ccc(C(F)(F)F)cc4)C3)cnn21 (stereo partly drawn) [Example 8, ((5R)-7,7-Dimethyl-5-phenyl-4,5,6,7-tetrahydropyrazolo[1,5-a]pyrimidin-3-yl)(1-(4-(trifluoromethyl)phenyl)-3-azabicyclo[3.1.0]hex-3-yl)methanone]	92%
CC1(C)C[C@H](c2ccccc2)Nc2c(C(=O)N3CC4CC4(c4ccsc4)C3)cnn21 (stereo partly drawn) [Example 46, ((5R)-7,7-Dimethyl-5-phenyl-4,5,6,7-tetrahydropyrazolo[1,5-a]pyrimidin-3-yl)(1-(3-thienyl)-3-azabicyclo[3.1.0]hex-3-yl)methanone]	99%
COc1ccc(C23CN(C(=O)c4cnn5c4N[C@@H](c4ccccc4)CC5(C)C)CC2C3(F)F)cc1 (stereo partly drawn) [Example 50, (6.6-Difluoro-1-(4-methoxyphenyl)-3-azabicyclo[3.1.0]hex-3-yl)((5R)-7,7-dimethyl-5-phenyl-4,5,6,7-tetrahydropyrazolo[1,5-a]pyrimidin-3-yl)methanone]	128%
CC1(C)C[C@H](c2ccccc2)Nc2c(C(=O)N3CC4CC4(c4ccncc4)C3)cnn21 (stereo partly drawn) [Example 45]	96%
CC1(C)C[C@H](c2ccccc2)Nc2c(C(=O)N3CC4CC4(c4cccc(Cl)c4)C3)cnn21 (stereo partly drawn) [Example 16, (1-(3-Chlorophenyl)-3-azabicyclo[3.1.0]hex-3-yl)((5R)-7,7-dimethyl-5-phenyl-4,5,6,7-tetrahydropyrazolo[1,5-a]pyrimidin-3-yl)methanone]	100%
COc1ccccc1C12CN(C(=O)c3cnn4c3N[C@@H](c3ccccc3)CC4(C)C)CC1C2(F)F (stereo partly drawn) [Example 52, (6,6-Difluoro-1-(2-methoxyphenyl)-3-azabicyclo[3.1 0]hex-3-yl)((5R)-7,7-dimethyl-5-phenyl-4.5,5,7-tetrahydropyrazolo[1,5-a]pyrimidin-3-yl)methanone]	111%
Cc1cccc(C23CC2CN(C(=O)c2cnn4c2N[C@@H](c2ccccc2)CC4(C)C)C3)c1 (stereo partly drawn) [Example 22, ((5R)-7,7-Dimethyl-5-phenyl-4,5,6,7-tetrahydropyrazolo[1,5-a]pyrimidin-3-yl)(1-(3-methylphenyl)-3-azabicyclo[3.1.0]hex-3-yl)methanone]	101%
CC1(C)C[C@H](c2ccccc2)Nc2c(C(=O)N3C[C@@H]4C[C@]4(C(F)F)C3)cnn21 [Example 47]	96%
